For orientation: fold induction means the signal under treatment as a multiple of the control signal. The low end stands for a weak induction, the high end for a strong induction.

The subject of one assay is HMOX1. Briefly: HMOX1 Protein Assay (immunostaining of HO-1 in NHLF cells, GE InCell 1000). Type of assay: cell-based. As to conditions: Homo sapiens, fold change above DMSO treated cells, 3 μM compound (asterisk), 16 h. The procedure, abridged: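 Fold induction of HO-1 over vehicle, normally at 5 μM compound (asterisk marks 3 μM), in 0.8% DMSO medium. Normal human lung fibroblasts were treated 16 h, then paraformaldehyde-fixed, anti-HO-1/Alexa 488 stained with Hoechst, and read by high-content imaging.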
`CO[C@H]1CCN(C(=O)CNC(=O)c2ccc3c(c2)nc(Nc2nc4ccc(C(F)(F)F)cc4s2)n3C)C1` [Example 410, 1-Methyl-2-(6-trifluoromethyl-benzothiazol-2-ylamino)-1H-benzoimidazole-5-carboxylic acid [2-((S)-3-methoxy-pyrrolidin-1-yl)-2-oxo-ethyl]-amide] came in with a fold induction at 3 µM of 24.7.

`Cn1c(Nc2nc3ccc(Cl)cc3s2)nc2cc(C(=O)NCCCN3CCOCC3)ccc21` [Example 359, 2-(6-Chloro-benzothiazol-2-ylamino)-1-methyl-1H-benzoimidazole-5-carboxylic acid (3-morpholin-4-yl-propyl)-amide] registered a fold induction at 3 µM of 17.4.

Staying with this assay, now noted: Homo sapiens, fold change above DMSO treated cells, 5 μM compound, 16 h.
Consider `Cn1c(Nc2nc3ccc(OC(F)(F)F)cc3s2)nc2cc(C(=O)NCCNS(C)(=O)=O)ccc21` [Example 322, 1-Methyl-2-(6-trifluoromethoxy-benzothiazol-2-ylamino)-1H-benzoimidazole-5-carboxylic acid (2-methanesulfonylamino-ethyl)-amide], for which the fold induction at 5 µM turned out to be 36.

Take `Cn1c(Nc2nc3ccc(OC(F)(F)F)cc3s2)nc2cc(C(=O)NCC(=O)N3CCOCC3)ccc21` [Example 138, 1-Methyl-2-(6-trifluoromethoxy-benzothiazol-2-ylamino)-1H-benzimidazole-5-carboxylic acid (2-morpholin-4-yl-2-oxo-ethyl)-amide]: the fold induction at 5 µM was determined as 11.

In the case of `COCCNC(=O)c1ccc2c(c1)nc(Nc1nc3ccc(C(F)(F)F)cc3s1)n2C` [Example 25, 1-Methyl-2-(6-trifluoromethyl-benzothiazol-2-ylamino)-1H-benzoimidazole-5-carboxylic acid (2-methoxy-ethyl)-amide], the fold induction at 5 µM came out at 27.1.

With `Cn1c(Nc2nc3ccc(OC(F)(F)F)cc3s2)nc2cc(C(=O)NCCC(=O)OC(C)(C)C)ccc21` [Example 136, 3-{[1-Methyl-2-(6-trifluoromethoxy-benzothiazol-2-ylamino)-1H-benzimidazole-5-carbonyl]-amino}-propionic acid tert-butyl ester], the fold induction at 5 µM came out at 5.7.

Turning to `Cn1c(Nc2nc3ccc(Cl)cc3s2)nc2cc(C(=O)N[C@@H]3CCN(CCO)C3)ccc21` [Example 292, 2-(6-Chloro-benzothiazol-2-ylamino)-1-methyl-1H-benzoimidazole-5-carboxylic acid [(R)-1-(2-hydroxy-ethyl)-pyrrolidin-3-yl]-amide], the fold induction at 5 µM worked out at 39.

`COCCCNC(=O)c1ccc2c(c1)nc(Nc1nc3ccc(OC(F)(F)F)cc3s1)n2C` [Example 19, 1-Methyl-2-(6-trifluoromethoxy-benzothiazol-2-ylamino)-1H-benzoimidazole-5-carboxylic acid (3-methoxy-propyl)-amide] registered a fold induction at 5 µM of 21.1.

With `Cn1c(Nc2nc3ccc(OC(F)(F)F)cc3s2)nc2cc(C#N)ccc21` [Example 194, 1-Methyl-2-(6-trifluoromethoxy-benzothiazol-2-ylamino)-1H-benzoimidazole-5-carbonitrile], the fold induction at 5 µM was 6.

In turn, `Cn1c(Nc2nc3ccc(OC(F)(F)F)cc3s2)nc2cc(C(=O)NCC(=O)N3CCOCC3)cnc21` [Example 420, 3-Methyl-2-(6-trifluoromethoxy-benzothiazol-2-ylamino)-3H-imidazo[4,5-b]pyridine-6-carboxylic acid (2-morpholin-4-yl-2-oxo-ethyl)-amide] came in with a fold induction at 5 µM of 33.

`Cn1c(Nc2nc3ccc(Cl)cc3s2)nc2cc(C(=O)NCCOCCO)ccc21` [Example 235, 2-(6-Chloro-benzothiazol-2-ylamino)-1-methyl-1H-benzoimidazole-5-carboxylic acid [2-(2-hydroxy-ethoxy)-ethyl]-amide] had a fold induction at 5 µM of 37.7.

In the case of `Cn1c(Nc2nc3ccc(OC(F)(F)F)cc3s2)nc2cc(C(=O)NC3(C(=O)O)CC3)ccc21` [Example 147, 1-{[1-Methyl-2-(6-trifluoromethoxy-benzothiazol-2-ylamino)-1H-benzimidazole-5-carbonyl]-amino}-cyclopropanecarboxylic acid], the fold induction at 5 µM was 1.8.

For the origin of these results see patent publication US8759535B2, “Substituted fused imidazole derivatives, pharmaceutical compositions, and methods of use thereof” (High Point Pharmaceuticals, LLC, priority 2010, dated 2014).
